Measurements reported in patent publication US20050233405A1, “Inhibitors of caspase-3-mediated cleavage of essential ventricular myosin light chain” (ProCorde GmbH, priority 2002, published 2005).
*: point of attachment. pNA = O=[N+]([O-])c1ccc(N*)cc1; AMC = Cc1cc(=O)oc2cc(N*)ccc12

How the values were obtained:
[1] = biological target: T1, caspase-3 (Homo sapiens, UniProt P42574); settings: chromogenic peptide substrates; J Biol Chem. 1997 Apr 11; 272(15):9677-82; cited from earlier work
T1 sequence (P42574 29-175 limits assumed): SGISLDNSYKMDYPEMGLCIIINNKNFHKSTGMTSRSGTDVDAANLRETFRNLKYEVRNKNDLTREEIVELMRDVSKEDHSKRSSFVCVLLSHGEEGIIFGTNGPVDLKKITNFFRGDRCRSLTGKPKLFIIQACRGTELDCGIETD
T1 sequence (P42574 176-277 limits assumed): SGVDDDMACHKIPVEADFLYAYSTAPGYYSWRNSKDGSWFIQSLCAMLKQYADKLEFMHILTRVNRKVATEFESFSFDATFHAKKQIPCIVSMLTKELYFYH

[2] = biological target: T2, caspase-7 (Homo sapiens, UniProt P55210); experiment: Fluorimetric peptide substrate cleavage assay, caspase-7; type: biochemical; settings: for cleavage of peptide substrate by caspase-7: fluorimetric in vitro assay
T2 sequence (P55210 24-198 limits assumed): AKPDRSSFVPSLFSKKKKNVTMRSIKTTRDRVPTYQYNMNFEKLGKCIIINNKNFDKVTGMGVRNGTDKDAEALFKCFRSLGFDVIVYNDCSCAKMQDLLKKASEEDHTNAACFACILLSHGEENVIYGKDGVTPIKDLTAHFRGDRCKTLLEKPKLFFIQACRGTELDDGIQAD
T2 sequence (P55210 207-303 limits assumed): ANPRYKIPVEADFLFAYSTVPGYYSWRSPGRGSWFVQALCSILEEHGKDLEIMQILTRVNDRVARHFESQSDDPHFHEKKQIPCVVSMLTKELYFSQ
Excerpt: (§1) FIG. 8: Effect of different proteases—other caspases and calpain—on cleavage of the peptide substrate Ac-DFVE-AMC. The 1/KM-value for caspase-3 was normalized to 1, and 1/KM-values of other caspases/proteases are shown in relation to that value. […] The functional proteolytic activity of all proteases used was confirmed with the typical peptide substrate of each protease.
To this end, fluorimetric in vitro assays using the specific cleavage sites coupled to indicator dyes were established. Caspase-3 and the structurally almost identical caspase-7 (Wei et al., 2000) cleaved both substrates, DEVD and DFVE, with a highly reproducible Michaelis-Menten kinetic. […] We measured a KM-value for DEVD which compared well to existing literature data (Table 1), whereas the KM-value for DFVE was in the range of some other rare substrates of caspase-3 (Table 1). This differential substrate affinity allows to screen for specific inhibitors of vMLC1 cleavage, which would, however, not affect the cleavage of most other known substrates of caspase-3 and 7.
(§2) As p35 inhibits all effector caspases (subtypes 1,3,6,7,8 and 10; e.g., Zhou et al., Biochemistry 1998; 37:10757), our concern was whether the observed beneficial effects of p35 in heart failure were really due to inhibition of caspase-3 and of the structurally almost identical caspase-7. Especially, we sought to exclude that the decrease in vMLC1 cleavage in the presence of p35 was due to predominant inhibition of a different caspase, and to exclude that the cleavage of vMLC1 was induced by caspase-3 only indirectly acting via other effector caspases. Therefore, we tested all these enzymes for their capacity to cleave Ac-DFVE-AMC. […] However, the highly homologous caspase-7 cleaved the new substrate DFVE with almost 1 log scale lower affinity compared to caspase-3.

[3] = biological target: T3, recombinant human caspase-3 (CPP32) (Homo sapiens, UniProt P42574); experiment: Fluorimetric peptide substrate cleavage assay, caspase-3; type: biochemical; settings: fluorimetric in vitro assay
T3 construct: purified, active recombinant human caspase-3 (CPP32); purchased BD Biosciences Pharmingen, Heidelberg, Germany
T3 sequence (P42574 29-175 limits assumed): T1 sequence (P42574 29-175 limits assumed)
T3 sequence (P42574 176-277 limits assumed): T1 sequence (P42574 176-277 limits assumed)
Description: The rate of caspase-3 enzyme activity could be measured by enzymatic cleavage and release of AMC from the Ac-DEVD-AMC caspase substrate (Biosyntan, Berlin, Germany). This parameter was measured as emission at 460 nm upon excitation at 380 nm using U.V. spectrofluorometry.
Ac-DFVE-AMC was synthesized by Biosyntan, Berlin, Germany, with a purity of 93.5%. The peptide lyophilised as trifluoracetic acid salt was reconstituted in DMSO to 100 mM. 5 μg of purified, active recombinant human caspase-3 (CPP32) from BD Biosciences Pharmingen, Heidelberg, Germany, were diluted in 100 μl 50 mM Tris, pH 8.0, with 100 mM NaCl, 50 mM imidazole.
The reaction buffer contained 20 mM HEPES, 100 mM NaCl, 10 mM DTT, 1 mM EDTA, 0.1 % (w/v) CHAPS, 10% sucrose, pH 7.2 and the indicated concentrations of Ac-DFVE-AMC. Caspase-3 was added to reaction mixture at a final concentration of 3 nM.
After preincubation for 10 min at 37° C., the released fluorogenic AMC was monitored every second minute for 20 min in a spectrofluorometer at an excitation wavelength of 380 nm and an emission wavelength of 460 nm.
Initial velocities and substrate concentrations were fit by non linear regression to the Michaelis-Menten equation. Lineweaver-Burk plots were calculated.

[4] = tested on: other caspases; experiment: Ac-DFVE-AMC cleavage by other caspases; type: biochemical; settings: physiological substrate concentrations
Excerpt: as §1, §2

[5] = biological target: T4, calpain-I (Homo sapiens, UniProt P07384); experiment: Ac-DFVE-AMC cleavage by calpain-I; type: biochemical; settings: physiological substrate concentrations
T4 sequence (P07384 1-714): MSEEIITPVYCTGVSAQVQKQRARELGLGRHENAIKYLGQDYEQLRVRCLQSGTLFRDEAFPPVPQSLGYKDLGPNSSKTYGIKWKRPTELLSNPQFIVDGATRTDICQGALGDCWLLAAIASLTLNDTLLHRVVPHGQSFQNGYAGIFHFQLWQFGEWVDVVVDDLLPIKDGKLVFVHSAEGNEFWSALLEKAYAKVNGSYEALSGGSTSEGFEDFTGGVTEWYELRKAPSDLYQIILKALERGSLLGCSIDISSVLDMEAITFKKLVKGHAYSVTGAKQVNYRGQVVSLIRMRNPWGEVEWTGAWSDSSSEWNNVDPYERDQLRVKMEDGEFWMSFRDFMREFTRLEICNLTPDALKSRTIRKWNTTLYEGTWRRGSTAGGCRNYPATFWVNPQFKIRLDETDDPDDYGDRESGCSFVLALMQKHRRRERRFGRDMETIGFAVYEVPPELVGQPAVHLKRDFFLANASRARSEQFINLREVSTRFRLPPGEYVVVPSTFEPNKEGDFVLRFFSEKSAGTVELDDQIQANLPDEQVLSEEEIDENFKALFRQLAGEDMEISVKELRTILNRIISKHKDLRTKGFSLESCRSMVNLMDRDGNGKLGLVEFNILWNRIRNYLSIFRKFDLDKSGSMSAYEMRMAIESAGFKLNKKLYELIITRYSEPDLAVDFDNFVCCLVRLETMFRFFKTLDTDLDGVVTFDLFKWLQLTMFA
T4 sequence (P04632 1-268 partner): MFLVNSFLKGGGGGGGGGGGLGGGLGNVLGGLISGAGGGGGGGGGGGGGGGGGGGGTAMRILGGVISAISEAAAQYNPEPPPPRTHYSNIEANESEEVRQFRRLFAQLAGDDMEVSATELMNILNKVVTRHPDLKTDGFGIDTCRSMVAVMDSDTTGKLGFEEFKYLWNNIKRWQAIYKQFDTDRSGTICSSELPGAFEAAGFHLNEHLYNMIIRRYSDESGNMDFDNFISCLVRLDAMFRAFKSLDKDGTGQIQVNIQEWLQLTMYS
Excerpt: as §1, §2

[6] = tested on: caspase-3 activation in failing myocardium; settings: rabbit CHF, rapid ventricular pacing; Laugwitz et al., 2001; cited from earlier work

Ac-VDVAD-pNA
Km [1]: 67 µM

Ac-VQVD-pNA
Km [1]: 510 µM

Ac-DEVD-AMC
cleavage of peptide substrate by caspase-7 [2]: cleaved | cleavage of peptide substrate by caspase-3 [3]: cleaved

Ac-YEVD-pNA
Km [1]: 370 µM

Ac-DEVD-pNA
Km [1]: 11 µM

Ac-VEID-pNA
Km [1]: 250 µM

Ac-DFVE-{AMC}
cleavage of peptide substrate by caspase-7 [2]: can specifically cleave | affinity of caspase-7 for the substrate, lower compared to caspase-3 ([2]; relative to caspase-3): ~1 log scale | cleavage of peptide substrate by caspase-3 [3]: can specifically cleave | cleavage of substrate by other caspases [4]: no cleavage was detectable | cleavage of substrate by calpain-I [5]: no cleavage was detectable

Ac-DQMD-pNA
Km [1]: 44 µM

B1: p35: potent caspase inhibitor p35, given by adenovirus-mediated gene delivery (protein, UniProt P08160 1-299, looked up)
Early 35 kDa protein: MCVIFPVEIDVSQTIIRDCQVDKQTRELVYINKIMNTQLTKPVLMMFNISGPIRSVTRKNNNLRDRIKSKVDEQFDQLERDYSDQMDGFHDSIKYFKDEHYSVSCQNGSVLKSKFAKILKSHDYTDKKSIEAYEKYCLPKLVDERNDYYVAVCVLKPGFENGSNQVLSFEYNPIGNKVIVPFAHEINDTGLYEYDVVAYVDSVQFDGEQFEEFVQSLILPSSFKNSEKVLYYNEASKNKSMIYKALEFTTESSWGKSEKYNWKIFCNGFIYDKKSKVLYVKLHNVTSALNKNVILNTIK
modifications: adenovirus-delivered
effect of in vivo transcoronary gene delivery in failing myocardium [6]: positive impact on sarcomeric organization and contractile performance
